Structures can show the parent of a compound that is named as a salt. Where two headings read alike, the source gives them in different places.
Tests used:
[1] = Cytotoxicity evaluation, MTT; format: cell-based, human; details: HepG2 cells (hepatocarcinoma-derived, ATCC HB-8065); human HepG2 cells, 72 hours, MTT
Experimental: The aim of this assay was to evaluate the impact of metabolic activation of the tested compounds on cell viability.
A cytotoxicity evaluation was performed using the method reported in Emami S A et al., Iran J Basic Med Sci 2012; 15:807-11 to determine the cytotoxic concentrations 50% (CC50) and using doxorubicin as a cytotoxic reference compound. These assays were performed in human HepG2 cells. HepG2 cells were purchased from ATCC (ref HB-8065). These cells are a commonly used human hepatocarcinoma-derived cell line that has characteristics similar to those of primary hepatocytes. These cells express many hepatocyte-specific metabolic enzymes, thus enabling the cytotoxicity of tested product metabolites to be evaluated. Briefly, cells in 100 μl of complete RPMI medium [RPMI supplemented with 10% FCS, 1% 1-glutamine (200 mM), penicillin (100 U/ml), and streptomycin (100 μg/ml)] were inoculated into each well of 96-well plates and incubated at 37° C. in a humidified chamber in 6% CO2. After 24 hours, 100 μl of medium with test compound at various concentrations dissolved in DMSO (final concentration less than 0.5% v/v) was added, and the plates were incubated for 72 hours at 37° C. Duplicate assays were performed for each sample. Each well was microscopically examined for precipitate formation before the medium was aspirated from the wells. After aspiration, 100 μl of MTT solution (0.5 mg/ml in medium without FCS) were then added to each well. Cells were incubated for 2 hours at 37° C. MTT solution was removed, and DMSO (100 μl) was added to dissolve the resulting blue formazan crystals. Plates were shaken vigorously (300 rpm) for 5 min. The absorbance was measured at 570 nm with 630 nm as reference wavelength in a BIO-TEK ELx808 Absorbance Microplate Reader. DMSO was used as blank and doxorubicin (Sigma-Aldrich) as positive control. Cell viability was calculated as percentage of control (cells incubated without compound).

[2] = system: T. brucei brucei AnTat 1.9; assay: In vitro antitrypanosomal activity, Alamar Blue assay; format: cell-based, Trypanosoma brucei brucei; details: Trypanosoma brucei, read-out: IC50 T. brucei brucei
Experimental: The effects of the tested compounds on the growth of T. brucei brucei were assessed using an Alamar Blue® assay described in B. Raz et al., Acta Trop. 1997, 68, 139. T. brucei brucei AnTat 1.9 (IMTA, Antwerpen, Belgium) was cultured in MEM with Earle's salts, supplemented according to the protocol disclosed in T. Baltz et al., EMBO J. 1985, 4, 1273, with the following modifications: 0.5 mM mercaptoethanol (Sigma-Aldrich), 1.5 mM 1-cysteine (Sigma-Aldrich), 0.05 mM bathocuproine sulfate (Sigma-Aldrich), and 20% heat-inactivated horse serum (Gibco, France) at 37° C. and 5% CO2. Samples were incubated at an average density of 2000 parasites/well in sterile 96-well plates (Fisher, France) with various concentrations of compounds dissolved in 0.9% NaCl. All doses were tested in duplicate. Appropriate controls treated with solvents 0.9% NaCl or DMSO or with suramin, pentamidine, eflornithine, and fexinidazole (reference drugs purchased from Sigma-Aldrich and Fluorochem, UK) were added to each set of experiments. After a 69-hour incubation at 37° C., 10 μl of the viability marker Alamar Blue (Fisher) was added to each well, and the plates were incubated for 5 hour. The plates were read in a PerkinElmer ENSPIRE (Germany) microplate reader using an excitation wavelength of 530 nm and an emission wavelength of 590 nm. The IC50 was defined as the concentration of drug necessary to inhibit by 50% the activity of T. brucei brucei compared to the control. IC50 values were calculated using a non-linear regression analysis of dose-response curves performed using GraphPad Prism software (USA). IC50 values were calculated from three independent experiments.

[3] = system: human telomeric sequence F21T; assay: FRET-melting, F21T; details: K+ condition, 2 μM compound, 0.2 μM oligonucleotide
[4] = system: human duplex sequence FdxT; assay: FRET-melting, FdxT; details: duplex control, K+ condition, 2 μM compound, 0.2 μM oligonucleotide
[5] = system: Plasmodium telomeric sequence FPf1T; assay: FRET-melting, FPf1T; details: K+ condition, 2 μM compound, 0.2 μM oligonucleotide
[6] = system: Plasmodium telomeric sequence FPf8T; assay: FRET-melting, FPf8T; details: K+ condition, 2 μM compound, 0.2 μM oligonucleotide
[7] = system: Trypanosoma 9 and 11 chromosomic sequence FTrypBT; assay: FRET-melting, FTrypBT; details: K+ condition, 2 μM compound, 0.2 μM oligonucleotide
[8] = system: Plasmodium falciparum W2; assay: In vitro antiplasmodial activity, SYBR Green I, strain W2; details: Plasmodium falciparum, W2, 48 h, read-out: IC50 Plasmodium falciparum W2, chloroquine-resistant strain W2, 48-hour incubation
[9] = system: Plasmodium falciparum 3D7; assay: In vitro antiplasmodial activity, SYBR Green I, strain 3D7; details: Plasmodium falciparum, 3D7, 48 h, read-out: IC50 Plasmodium falciparum 3D7, chloroquine-sensitive strain 3D7, 48-hour incubation
Experimental: The in vitro antiplasmodial activities were tested over concentrations ranging from 39 to 40 μm against culture-adapted Plasmodium falciparum: reference strains 3D7 and W2. […] The parasites were cultivated in RPMI medium (Sigma-Aldrich, Lyon, France) supplemented with 0.5% Albumax I (Life Technologies Corporation, Paisley, UK), hypoxanthine (Sigma-Aldrich), and gentamicin (Sigma-Aldrich) with human erythrocytes and were incubated at 37° C. in a candle jar, as described in Desjardins R E et al., Antimicrob Agents Chemother, 1979; 16:710-18.
The P. falciparum drug susceptibility test was carried out in 96-well flat bottom sterile plates in a final volume of 250 μL. After a 48-hour incubation with the drugs, quantities of DNA in treated and control cultures of parasites in human erythrocytes were quantified using the SYBR Green I (Sigma-Aldrich) fluorescence-based method as described in Bennett T N et al, Antimicrob Agents Chemother, 2004; 48:1807-10. Briefly, after incubation, plates were frozen at −20° C. until use. Plates were then thawed for 2 hours at room temperature, and 100 μL of each homogenized culture was transferred to a well of a 96-well flat bottom sterile black plate (Nunc, Inc., Rochester, NY) that contained 100 μL of the SYBR Green I lysis buffer (2×SYBR Green, 20 mM Tris base pH 7.5, 5 mM EDTA, 0.008% w/v saponin, 0.08% w/v Triton X-100). […] Plates were incubated for 1 hour at room temperature and then read on a fluorescence plate reader (Tecan, Grödig, Austria) using excitation and emission wavelengths of 485 and 535 nm, respectively. Concentrations inhibiting 50% of the parasite's growth (half maximal inhibitory concentration or IC50 values) were then calculated from the obtained experimental results by non-linear regression analysis of data from dose-response curves, using TableCurve 2D version 5.0 software (Systat Software, San Jose, CA). IC50 values are reported as means calculated from three independent experiments, as described in H. Kaddouri et al., Antimicrob.

[10] = 69-hour incubation, Alamar Blue

Row | SMILES | IC50 at 72 h [1] [nM] | IC50 ([2]; 69 h) [nM] | FRET-melting values in K+ conditions at 2 μM ΔTm F21T [3] [°C] | FRET-melting values in K+ conditions at 2 μM ΔTm FdxT [4] [°C] | FRET-melting values in K+ conditions at 2 μM ΔTm FPf1T [5] [°C] | FRET-melting values in K+ conditions at 2 μM ΔTm FPf8T [6] [°C] | FRET-melting values in K+ conditions at 2 μM ΔTm FtryBT [7] [°C] | IC50 [8] [nM] | IC50 [9] [nM] | IC50 [2, 10] [nM]
1 | CN1CCN(CCCNCc2ccc(-c3nc(-c4ccc(CNCCCN5CCN(C)CC5)cc4)c4ccn(-c5ccccc5)c4n3)cc2)CC1 [Compound 2B, 2,4-bis{4-[(3-(4-methylpiperazin-1-yl)propyl)aminomethyl]phenyl}-7-phenyl-7H-pyrrolo[2,3-d]pyrimidine oxalate] | 1080 | 880 ± 70 | 19.6 | 0.7 | 19.1 | 20.0 | 17.3 | 1010 ± 160 |  | 
2 | CN(C)CCCNCc1ccc(-c2nc(-c3ccc(CNCCCN(C)C)s3)c3ccn(-c4ccccc4)c3n2)cc1 [Compound 6B, 2-{4-[(3-Dimethylaminopropyl)aminomethyl]phenyl}-4-{5-[(3-dimethylaminopropyl)aminomethyl]thien-2-yl}-7-phenyl-7H-pyrrolo[2,3-d]pyrimidine oxalate] | 1740 | 140 ± 20 | 25.5 | 1.7 | 26.3 | 26.6 | 23.1 | 750 ± 160 | 1210 ± 180 | 
3 | CN(C)CCCNCc1ccc(-c2nc(-c3ccc(CNCCCN(C)C)s3)nc3c2ccn3-c2ccccc2)cc1 [Compound 7B, 4-{4-[(3-Dimethylaminopropyl)aminomethyl]phenyl}-2-{5-[(3-dimethylaminopropyl)aminomethyl]thien-2-yl}-7-phenyl-7H-pyrrolo[2,3-d]pyrimidine oxalate] | 1910 | 630 ± 70 | 13.8 | −0.3 | 11.5 | 12.8 | 10.5 | 2390 ± 80 | 880 ± 240 | 
4 | CN(C)CCCNCc1ccc(-c2nc(-c3ccc(CNCCCN(C)C)cc3)c3ccn(C)c3n2)cc1 [Compound 8B, 2,4-bis{4-[(3-dimethylaminopropyl)aminomethyl]phenyl}-7-methyl-7H-pyrrolo[2,3-d]pyrimidine oxalate] | 16400 | 550 ± 50 | 10.9 | −0.2 | 10.3 | 10.6 | 9.4 | 4460 ± 600 | 1950 ± 690 | 
5 | CN1CCN(CCCNCc2ccc(-c3nc(-c4ccc(CNCCCN5CCN(C)CC5)cc4)c4ccn(C)c4n3)cc2)CC1 [Compound 9B, 2,4-bis{4-[(3-(4-methylpiperazin-1-yl)propyl)aminomethyl]phenyl}-7-methyl-7H-pyrrolo[2,3-d]pyrimidine oxalate] | 39500 | 1000 ± 100 | 10.4 | 0.0 | 10.1 | 10.1 | 8.4 | 130 ± 50 | 17800 ± 3490 | 
6 | CN(C)CCCNCc1ccc(-c2nc(Cl)nc3[nH]ccc23)cc1 [Compound 15B, 2-Chloro-4-{4-[(3-dimethylaminopropyl)aminomethyl]phenyl}-7H-pyrrolo[2,3-d]pyrimidine oxalate] | 23700 | 510 ± 70 | 0.3 | 0.1 |  |  |  | 15200 ± 2080 | 10300 ± 220 | 
7 | CN1CCN(CCCNCc2ccc(-c3nc(Cl)nc4[nH]ccc34)cc2)CC1 [Compound 16B, 2-Chloro-4-{4-[(3-(4-methylpiperazin-1-yl)propyl)aminomethyl]phenyl}-7H-pyrrolo[2,3-d]pyrimidine oxalate] | 63500 | 1340 ± 250 | 0.8 | 0.1 |  |  |  | 25900 ± 4630 | 10500 ± 230 | 
8 | CN(C)CCCNCc1ccc(-c2nc(Cl)nc3c2ccn3-c2ccccc2)cc1 [Compound 17B, 2-Chloro-4-{4-[(3-dimethylaminopropyl)aminomethyl]phenyl}-7-phenyl-7H-pyrrolo[2,3-d]pyrimidine oxalate] | 2870 | 20 |  | −0.2 |  |  |  | 290 ± 40 | 1010 ± 410 | 
9 | CN(C)CCCNCc1ccc(-c2nc(Cl)nc3c2ccn3-c2ccccc2)s1 [Compound 19B, 2-Chloro-4-{5-[(3-dimethylaminopropyl)aminomethyl]thien-2-yl}-7-phenyl-7H-pyrrolo[2,3-d]pyrimidine oxalate] | 1880 | 50 ± 10 | 6.2 | −1.8 |  |  |  | 4560 ± 560 | 1970 ± 360 | 
10 | CN(C)CCCNCc1ccc(-c2nc(-c3ccc(CNCCCN(C)C)cc3)c3ccsc3n2)cc1 [Compound 26B, 2,4-Bis{4-[(4-dimethylaminopropyl)aminomethyl]phenyl}thieno[2,3-d]pyrimidine oxalate] | 2790 |  | 14.1 | 0.3 | 11.2 | 13.2 | 8.6 | 9950 ± 1470 | 4460 ± 350 | 460 ± 40
11 | CN(C)CCCNCc1ccc(-c2nc(NCCCN(C)C)nc3sccc23)cc1 [Compound 28B, 2-(3-Dimethylaminopropylamino)-4-{4-[(4-dimethylaminopropyl)aminomethyl]phenyl}thieno[2,3-d]pyrimidine oxalate] | 35200 |  | 2.41 | −0.77 |  |  |  | 11500 ± 2470 | 30 | 1100 ± 260

— patent US20250360134A1, “6-6 OR 5-6 FUSED BICYCLIC COMPOUNDS COMPRISING A PYRI(MI)DINE RING USEFUL IN THE|TREATMENT OF INFECTIOUS DISEASES” (INSTITUT NATIONAL DE LA SANTE ET DE LA RECHERCHE MEDICALE …, priority 2020, published 2025)
